Earlier results, collected in patent US7045323B2 (priority 1999, dated 2006).

How the values were obtained:
[1] = tested on: HIV reverse transcription process
proviral DNA load = settings: murine model of immunodeficiency; first stage of infection

SMILES	inhibition of the HIV reverse transcription process [1]	proviral DNA load (proviral DNA load)
CC(=O)N[C@@H](CS)C(=O)O [N-acetylcysteine]	can inhibit	–
N[C@@H](CCC(=O)N[C@@H](CS)C(=O)NCC(=O)O)C(=O)O [GSH, glutathione]	can inhibit	able to decrease the proviral DNA load
